Source: patent US10851082B2, “Substituted aromatic n-heterocyclic compounds as inhibitors of mitogen-activated protein kinase interacting kinase 1 (MNK1) and 2 (MNK2)” (Northwestern University, priority 2015, dated 2020)
Read-outs that look alike come from different tables or passages of the source.

Tests used:
[1] = molecular target: Mnk2 (Homo sapiens (Human), UniProt Q9HBH9); experiment: Mnk2 kinase inhibition, ADP-Glo ADP monitoring assay; type: biochemical
Method: (§1) The synthesized compounds then were tested for inhibition of the kinase activity (IC50) of Mnk1 and/or Mnk2 using the ADP monitoring assay for kinases described in Zegzouti, H.; Zdanovskaia, M.; Hsiao, K.; Goueli, S. A., ADP-Glo: A Bioluminescent and homogeneous ADP monitoring assay for kinases.

[2] = molecular target: Mnk1 (Homo sapiens (Human), UniProt Q9BUB5); experiment: Mnk1 kinase inhibition, ADP-Glo ADP monitoring assay; type: biochemical; settings: read-out: Mnk1 inhibition IC50 (+,++,+++)
Method: as §1

[3] = ADP-Glo kinase assay, read-out: Mnk2 inhibition IC50 (+,++,+++)

Sequence of Mnk1 (Q9BUB5 whole entry): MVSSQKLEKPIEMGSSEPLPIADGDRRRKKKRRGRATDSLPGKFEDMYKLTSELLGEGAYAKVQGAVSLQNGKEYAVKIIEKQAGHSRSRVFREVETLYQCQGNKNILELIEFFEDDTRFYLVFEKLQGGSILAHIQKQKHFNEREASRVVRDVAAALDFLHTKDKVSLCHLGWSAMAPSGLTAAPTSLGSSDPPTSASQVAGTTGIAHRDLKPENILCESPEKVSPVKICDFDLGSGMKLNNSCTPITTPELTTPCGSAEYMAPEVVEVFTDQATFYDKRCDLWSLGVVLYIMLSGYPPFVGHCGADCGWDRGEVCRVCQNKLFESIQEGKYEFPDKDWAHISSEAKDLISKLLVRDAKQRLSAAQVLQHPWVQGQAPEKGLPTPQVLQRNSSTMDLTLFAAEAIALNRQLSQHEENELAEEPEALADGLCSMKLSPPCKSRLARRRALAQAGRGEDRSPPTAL
Sequence of Mnk2 (Q9HBH9 whole entry): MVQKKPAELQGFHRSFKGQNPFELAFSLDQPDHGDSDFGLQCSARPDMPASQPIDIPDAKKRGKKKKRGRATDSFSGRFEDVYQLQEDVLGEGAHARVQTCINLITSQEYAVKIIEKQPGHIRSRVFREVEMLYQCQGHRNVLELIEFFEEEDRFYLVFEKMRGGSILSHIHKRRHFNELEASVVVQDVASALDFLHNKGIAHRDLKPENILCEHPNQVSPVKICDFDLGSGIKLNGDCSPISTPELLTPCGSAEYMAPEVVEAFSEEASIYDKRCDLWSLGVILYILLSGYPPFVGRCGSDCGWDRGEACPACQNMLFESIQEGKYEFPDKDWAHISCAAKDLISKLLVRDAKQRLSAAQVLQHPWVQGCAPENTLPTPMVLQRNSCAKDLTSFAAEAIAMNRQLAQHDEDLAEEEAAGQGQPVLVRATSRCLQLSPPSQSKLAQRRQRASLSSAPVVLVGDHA

Row | SMILES | IC50 [1] | IC50 [2] | IC50 [1, 3]
1 | N#Cc1cnc(OCCc2cccnc2)nc1-n1cnc2ccccc21 [NUCC-0201005] | 1000 to 10000 nM | 1000 to 10000 nM | 
2 | NC1CCN(c2ncc(Cl)c(-n3cnc4ccccc43)n2)C1 (stereo not drawn) [NUCC-0201006] | 1000 to 10000 nM | 1000 to 10000 nM | 
3 | Clc1cnc(NC2CCNC2)nc1-n1cnc2ccccc21 (stereo not drawn) [NUCC-0201007] |  | < 1000 nM | < 1000 nM
4 | Clc1cnc(NC2CCN(c3nccn4ccnc34)C2)nc1-n1cnc2ccccc21 (stereo not drawn) [NUCC-0201015] | 1000 to 10000 nM | 1000 to 10000 nM | 
5 | Cc1nc2ccccc2n1-c1nc(OC2CC(N(C)C)C2)ncc1Cl (stereo not drawn) [NUCC-0201016, 3-((5-chloro-4-(2-methyl-1H-benzo[d]imidazol-1-yl)pyrimidin-2-yl)oxy)-N,N-dimethylcyclobutanamine] | 1000 to 10000 nM | 1000 to 10000 nM | 
6 | CC1(C)COC(=O)C1Oc1ncc(Cl)c(-n2cnc3ccccc32)n1 (stereo not drawn) [NUCC-0201017] |  | < 1000 nM | < 1000 nM
7 | CC1=C(Oc2ncc(Cl)c(-n3cnc4ccccc43)n2)C(=O)C(C)O1 (stereo not drawn) [NUCC-0201018] | 1000 to 10000 nM | 1000 to 10000 nM | 
8 | CC1=C(Oc2ncc(Cl)c(-n3cnc4ccccc43)n2)C(=O)CO1 [NUCC-0201019] | 1000 to 10000 nM | 1000 to 10000 nM | 
9 | FC(F)(F)c1cc(Cl)c2ncn(-c3nc(OCCc4ccccn4)ncc3Cl)c2c1 [NUCC-0201020] | 1000 to 10000 nM | 1000 to 10000 nM | 
10 | Clc1cccc(CCOc2ncc(Cl)c(-n3cnc4ccccc43)n2)n1 [NUCC-0201021] |  | < 1000 nM | < 1000 nM
11 | Clc1cc(Cl)nc(CCOc2ncc(Cl)c(-n3cnc4ccccc43)n2)c1 [NUCC-0201022] | 1000 to 10000 nM | 1000 to 10000 nM | 
12 | Fc1cc(CCOc2ncc(Cl)c(-n3cnc4ccccc43)n2)ccn1 [NUCC-0201046, 1-(5-chloro-2-(2-(2-fluoropyridin-4-yl)ethoxy)pyrimidin-4-yl)-1H-benzo[d]imidazole] |  | < 1000 nM | < 1000 nM
13 | N[C@H]1C[C@@H](Oc2ncc(Cl)c(-n3cnc4ccccc43)n2)C1 [NUCC-0201047] |  | < 1000 nM | < 1000 nM
14 | Clc1cnc(OC2CCC2)nc1-n1cnc2ccccc21 [NUCC-0201048] |  | < 1000 nM | < 1000 nM
15 | Clc1cnc(NC2CCC2)nc1-n1cnc2ccccc21 [NUCC-0201050] | 1000 to 10000 nM | 1000 to 10000 nM | 
16 | O=C1CCN(c2ncc(Cl)c(-n3cnc4ccccc43)n2)C1 [NUCC-0201051] | 1000 to 10000 nM | 1000 to 10000 nM | 
17 | N[C@H]1C[C@H](Oc2ncc(Cl)c(-n3cnc4ccccc43)n2)C1 [NUCC-0201052] |  | < 1000 nM | < 1000 nM
18 | Clc1cnc(NC2C3CC2C3)nc1-n1cnc2ccccc21 (stereo not drawn) [NUCC-0201136] | 1000 to 10000 nM | 1000 to 10000 nM | 
19 | N#Cc1cnc(NC2C3CC2C3)nc1-n1cnc2ccccc21 (stereo not drawn) [NUCC-0201137, 4-(1H-benzo[d]imidazol-1-yl)-2-(bicyclo[1.1.1]pentan-2-ylamino)pyrimidine-5-carbonitrile] |  | < 1000 nM | < 1000 nM
20 | N#Cc1cn(-c2nc(OC3CC(N)C3)ncc2Cl)cn1 (stereo not drawn) [NUCC-0201246] | 1000 to 10000 nM | 1000 to 10000 nM | 
21 | NC1CC(Oc2ncc(Cl)c(-n3cnc(-c4ccc(Cl)c(C(F)(F)F)c4)c3)n2)C1 (stereo not drawn) [NUCC-0201247, 3-((5-chloro-4-(4-(4-chloro-3-(trifluoromethyl)phenyl)-1H-imidazol-1-yl)pyrimidin-2-yl)oxy)cyclobutanamine] | 1000 to 10000 nM | 1000 to 10000 nM | 
22 | N#Cc1cnc(OC2CC(N)C2)nc1-n1cnc(-c2ccc(Cl)c(Cl)c2)c1 (stereo not drawn) [NUCC-0201248] |  | 1000 to 10000 nM | < 1000 nM
23 | CC(C)(COc1ncc(Cl)c(-n2cnc3ccccc32)n1)c1ccncc1 [NUCC-0201593, 1-(5-chloro-2-(2-methyl-2-(pyridin-4-yl)propoxy)pyrimidin-4-yl)-1H-benzo[d]imidazole] |  | 1000 to 10000 nM | < 1000 nM
24 | Fc1ccc2c(ncn2-c2nc(OCCc3ccccn3)ncc2Cl)c1F [NUCC-0201662] |  | < 1000 nM | < 1000 nM

Row | SMILES | IC50 [1] | IC50 [2] | IC50 [1, 3]
25 | NC1CC(Oc2ncc(C(F)(F)F)c(-n3cnc4ccccc43)n2)C1 (stereo not drawn) [NUCC-0201663] | 1000 to 10000 nM | < 1000 nM | 
26 | NC1CC(Oc2ncc(Cl)c(-n3cnc(C(F)(F)F)c3)n2)C1 (stereo not drawn) [NUCC-0201664] | 1000 to 10000 nM | < 1000 nM | 
27 | Clc1cnc(CCc2ccccn2)nc1-n1cnc2ccccc21 [NUCC-0201706, 1-(5-chloro-2-(2-(pyridin-2-yl)ethyl)pyrimidin-4-yl)-1H-benzo[d]imidazole] | 1000 to 10000 nM | 1000 to 10000 nM | 
28 | Fc1cnc(NC23CC(C2)C3)nc1-n1cnc2ccccc21 [NUCC-0201887] |  | < 1000 nM | < 1000 nM
29 | FC(F)(F)c1cnc(NC23CC(C2)C3)nc1-n1cnc2ccccc21 [NUCC-0201888] |  | < 1000 nM | < 1000 nM
30 | CCOC(=O)c1cnc(NC2CNC(=O)C2)nc1-n1cnc2ccccc21 (stereo not drawn) [NUCC-0201889] | 1000 to 10000 nM | 1000 to 10000 nM | 
31 | O=C1CC(Nc2ncc(C(F)(F)F)c(-n3cnc4ccccc43)n2)CN1 (stereo not drawn) [NUCC-0201890] |  | < 1000 nM | < 1000 nM
32 | O=C(O)C1CC(Oc2ncc(Cl)c(-n3cnc4ccccc43)n2)C1 (stereo not drawn) [NUCC-0201891] |  | 1000 to 10000 nM | < 1000 nM
33 | Nc1ccc(CCOc2ncc(Cl)c(-n3cnc4ccccc43)n2)cc1 [NUCC-0201892] |  | < 1000 nM | < 1000 nM
34 | NC1CC(Oc2ncc(Br)c(-n3cnc4ccccc43)n2)C1 (stereo not drawn) [NUCC-0201893] |  | < 1000 nM | < 1000 nM
35 | NC1CC(Oc2nc(-n3cnc4ccccc43)c3ccccc3n2)C1 (stereo not drawn) [NUCC-0201894] |  | < 1000 nM | < 1000 nM
36 | Brc1cnc(OC2CCNC2)nc1-n1cnc2ccccc21 (stereo not drawn) [NUCC-0201895] |  | < 1000 nM | < 1000 nM
37 | c1ccc2c(c1)ncn2-c1ccnc(OC2CCNC2)n1 (stereo not drawn) [NUCC-0201896] |  | < 1000 nM | < 1000 nM
38 | FC(F)(F)c1cnc(OC2CCNC2)nc1-n1cnc2ccccc21 (stereo not drawn) [NUCC-0201897] |  | < 1000 nM | < 1000 nM
39 | NC(=O)c1cccc(-c2cnc(OC3CC(N)C3)nc2-n2cnc3ccccc32)c1 (stereo not drawn) [NUCC-0201899] |  | 1000 to 10000 nM | < 1000 nM
40 | NC1CC(Oc2ncc(C3CC3)c(-n3cnc4ccccc43)n2)C1 (stereo not drawn) [NUCC-0201900] |  | < 1000 nM | < 1000 nM
41 | NC(=O)c1cccc(-c2cnc(OC3CCNC3)nc2-n2cnc3ccccc32)c1 (stereo not drawn) [NUCC-0201901] |  | 1000 to 10000 nM | < 1000 nM
42 | c1ccc2c(c1)ncn2-c1nc(OC2CCNC2)ncc1-c1ccsc1 (stereo not drawn) [NUCC-0201902] |  | < 1000 nM | < 1000 nM
43 | NC(=O)c1ccc(-c2cnc(OC3CCNC3)nc2-n2cnc3ccccc32)cc1 (stereo not drawn) [NUCC-0201903] |  | < 1000 nM | < 1000 nM
44 | N#Cc1cnc(NC2CNC(=O)C2)nc1-n1cnc2ccccc21 (stereo not drawn) [NUCC-0201905] |  | < 1000 nM | < 1000 nM
45 | Fc1cccc(CCOc2ncc(Cl)c(-n3cnc4ccccc43)n2)c1 [NUCC-0201906] |  | < 1000 nM | < 1000 nM
46 | N#Cc1cnc(-n2cnc3ccccc32)nc1OCCc1ccnc(F)c1 [NUCC-0201907] |  | < 1000 nM | < 1000 nM
47 | CC(C)(COc1nc(-n2cnc3ccccc32)ncc1C#N)c1ccnc(F)c1 [NUCC-0201908] | 1000 to 10000 nM | 1000 to 10000 nM | 
48 | CC(C)(COc1ncc(Cl)c(-n2cnc3ccccc32)n1)c1ccnc(F)c1 [NUCC-0201914] |  | < 1000 nM | < 1000 nM
